Data on 23 molecules can be found in patent US20140100183A1, “CENTRAL ADMINISTRATION OF STABLE FORMULATIONS OF THERAPEUTIC AGENTS FOR CNS CONDITIONS” (The Regents of the University of Colorado, a body corporate, priority 2006, published 2014).

Counter-ions that a name gives are not always drawn. Like-named read-outs stand apart in the source and are kept apart here. Marks after values point to notes of the source that are not given here.

Series [1] relates to sensory inhibition deficits in DBA/2 mice. Nature of the series: Sensory inhibition (paired auditory stimuli, TC ratio) after acute ICV administration. The class given is in vivo, mouse. Conditions: 5 μg dose ICV.
Method: The following methods were used to record the sensory inhibition.
The deficit in sensory inhibition can be quantified using the paired stimulus paradigm in which 2 identical stimuli are delivered 0.5 seconds apart and the electrophysiological response to each is recorded. In normal individuals, the response to the second, or test, stimulus, occurring 50 msec after stimulus onset, is reduced compared to the response to the first, or conditioning stimulus. However, schizophrenia patients have similar magnitude responses to both stimuli: The “TC ratio” is calculated by dividing the test amplitude by the conditioning amplitude. […] In normal individuals, the TC ratio is generally less than 0.4 while schizophrenia patients commonly have TC ratios above 0.5 and often approaching or exceeding 1.0.
In the present study, briefly, 5 baseline records were obtained in response to the paired auditory stimuli, prior to drug administration. […] Recordings were obtained at 5 minute intervals for 90 minutes post injection. Data analyzed included the amplitude of the response to the first stimulus (conditioning amplitude), amplitude of the response to the second stimulus (test amplitude) and the TC ratio (test amplitude/conditioning amplitude). This final parameter gives a measure of the level of inhibition in the circuit initiated by the conditioning stimulus. […] DBA/2 mice routinely have TC ratios of ≧0.8.
The subject of series [2] is patients diagnosed with psychotic disorders. The experiment in a line: ICV or cisterna magna treatment of psychotic disorders (Example 5). Conditions: central administration, 0.01 to 0.1 mg per hour, 1 week.
Method: A 5 mg/ml solution of the active agent is solubilized in aqueous solution using beta-hydroxypropyl cyclodextrin, made isotonic with NaCl, and the pH is maintained at 7.4 with 10 mM sodium phosphate. […] The stabilized solution is inserted into a fluid reservoir attached to a Medtronic Synchromed-II intrathecal delivery system. The stabilized formulation is intracerebroventricularly or cistema magna injected into patients diagnosed with psychotic disorders.
Injection is continuous, using a computerized pump to provide a delivery rate of 0.01 to 0.1 mg of the active agent per hour, depending on the severity of symptoms.
The subject of series [3] is anxiety in rats (elevated plus maze, open field). Nature of the series: Elevated plus maze and open field conflicts test after ICV antidepressants. In kind it is in vivo, rat. Conditions: for Rodent ICV dose: anxiety reduction; for % of Oral dose: rodent ICV dose vs human oral equivalent; for efficacy following ICV administration: elevated plus maze and open field conflicts test.
Method: Various antidepressants were injected via ICV, and animals monitored in standard elevated plus maze and open field conflicts test.
Rats are placed in the center of a pluz-shaped maze. The arms are 13 cm wide; two arms were open and two are enclosed by 32 cm high walls. The maze is elevated off the flor by 51 cm. The percent of time and distance traveled in each type of arm over the 4 minute test period is calculated by computer. Increased time and distance traveled in the open arms is thought to reflect anxiolytic activity.
Rats are place against 1 side of a 104 cm square box with 32 cm sides. The activity of the rat is monitored by computer over a 4 minute testing period. A computer divides the openfied space into 25 equal squares arranged into an outer:ring” of 16 squares, a middle region of 8 squares and a central square. The percent of time and distarnce traveled in the center square by rats receiving the drug are calculated and compared to rats receiving a saline control. Increased time and distance traveled in the center square is thought to reflect anxiolytic activity.

The subject of another series is human. The note with it: cited from earlier work.
In series [4] the test system is primary mouse cortical neuron cultures. The experiment in a line: Toxicity in primary mouse cortical neuron cultures (MTT). The note with it: 24 hours, 0.002% to 0.1% in culture media.
Method: In addition, a preliminary assessment of the toxicity of cyclodextrin in primary mouse cortical neuron cultures was performed. […] After dissection, and cellular dissociation, the cells were washed with Dulbecco's Modified Eagle's Medium with 10% fetal bovine serum. Following recentrifugation, the cells resuspended in plating medium, counted with trypan blue and plated at a constant density of 6.5×10^4 cells per well in a 96-well pre-coated plate. […] The cultures were maintained at 37° C. in a humidified atmosphere of 5% CO2. […] The cultures were incubated and cell toxicity assayed at 24, 48 and 72 hours. Viability was assessed by the MTT (3-(4,5 diethylthiazol-2-yl)-2,5)diphenyltetrazolium bromide) assay, CellTiter 96 Non-radioactive cell Proliferation Assay (Promega, Madison Wis.) and by visual examination.
For series [5], the system named is patients diagnosed with epilepsy disorders. The experiment in a line: ICV or cisterna magna treatment of epilepsy (Example 6). Conditions: central administration, 0.01 to 0.1 mg per hour, 1 week. The class given is in vivo, human. An excerpt: After 1 week of treatment, epileptic frequency is reduced.
Series [6] concerns pentylenetetrazole (PTZ) seizure induction in rats. The experiment in a line: Pentylenetetrazole (PTZ) seizure induction model, ICV administration. The class given is in vivo, rat. Conditions: for % Change: drug group vs vehicle group (-V); for Rodent ICV dose: effective daily dose, blocking seizures; for Efficacy: effective in blocking seizures.
Method: Rats are anesthetized, placed in a stereotaxic instrument and a burr hole opened over one anterior lateral ventricle. A cannula is lowered to the ventricle and 5 μl of solution containing the drug is injected into the ventricle over 10 minutes. The incision is then closed and the animal allowed to regain consciousness and remain conscious for 10 minutes. After 10 minutes has elapsed, pentylenetetrazole (PTZ, 10 mg/ml in saline) is injected through a tail-vein catheter at a constant rate of infusion (1 ml/min, Razel syringe pump) until a motor seizure is induced. PTZ seizures are identified as myoclonic jerking followed by clonus and tonus. The time from the initial application of PTZ to the first clonic seizure (i.e., forelimb clonus) is measured and defined as “latency to seiqure onset”. The total amount of PTZ infused is calculated and then divided by each rat;s body weight to obtain the dose (mg/kg) of PTZ. The dose required to attain status epilepticus is compared to the PTZ dose without antiseizure medication.
The conditions of series [7]: cited from earlier work; for Comments: solubility: qualitative, solvents as given in the source.
Another series concerns animals. The experiment in a line: Behavioral toxicology: openfield, elevated plus, ataxia. In kind it is in vivo.
Where [8] appears, read: rodent ICV dose vs human oral equivalent.
Setting [9] is: human dose is IV not oral for this drug.

Method for animals: Several animal models as described below were used to determine the efficacy of formulations containing different concentrations of the drug. The animals were also tested for toxic effects as described in the table, below.
All animals are assessed for ataxia, which is a measure of altered gate and ability to change body position. They are also placed on their acks and time to “righting” measured.

`Cc1nccn1CC1CCc2c(c3ccccc3n2C)C1=O` (stereo not drawn) [ondansetron]: the TC ratio entry in series [1] is reported as “significantly reduced TC ratios”.

In the case of `OCCOCCN1CCN(C2=Nc3ccccc3Sc3ccccc32)CC1` [Quetiapine], the “alleviation of psychotic symptoms” value in series [2] was “efficacious therapeutic alleviation of psychotic symptoms”.

As for `CN(C)CCCN1c2ccccc2CCc2ccc(Cl)cc21` [Clomipramine, 3-(3-Chloro-10,11-dihydro-5H-dibenz[b,f]azepin-5-yl)propyldimethylamine hydrochloride], in [3] (effective daily dose), the “Rodent ICV dose” value was found to be 0.37 mg/kg. For the same molecule, in series [3], the “% of Oral dose” value is reported as 8.8%. Besides, the Human oral equivalent in the series on human (effective daily dose, oral) is listed as 4.16 mg/kg.

As to `CNCCC(Oc1ccc(C(F)(F)F)cc1)c1ccccc1` (racemic) [Fluoxetine, (+/−)-N-Methyl-3-phenyl-3-(alpha,alpha,alpha-trifluoro-p-tolyloxy)propylamine hydrochloride], in series [3] (estimated effective dose), the “Rodent ICV dose” value is 0.74** mg/kg. Besides, in [3], the “% of Oral dose” value is 224%. Besides, the Human oral equivalent in the series with human (effective daily dose, oral) is recorded as 0.33 mg/kg.

`Nc1nnc(-c2cccc(Cl)c2Cl)c(N)n1` [Lamictal]: the Human oral equivalent in the series on human (effective daily dose, oral) is listed as 3.33 mg/kg.

For the molecule `O=C1CCc2ccc(OCCCCN3CCN(c4cccc(Cl)c4Cl)CC3)cc2N1` [Aripiprazole], in series [2], the “alleviation of psychotic symptoms” value is “efficacious therapeutic alleviation of psychotic symptoms”.

Turning to cyclodextrin, the “toxicity of cyclodextrin alone” value in [4] was “no toxicity”.

As to `O=C1Cc2cc(CCN3CCN(c4nsc5ccccc45)CC3)c(Cl)cc2N1` [Geodon], the “alleviation of psychotic symptoms” value in series [2] is given as “efficacious therapeutic alleviation of psychotic symptoms”.

As for `NC(=O)N1c2ccccc2C=Cc2ccccc21` [Tegretol, 5H-dibenz[b,f]azepine-5-carboxamide], the alleviation of seizures entry in series [5] is “efficacious therapeutic alleviation of seizures”. For the same molecule, in series [6], the “% Change” value is reported as 60%, the “Rodent ICV dose” value was 8.88 µg/kg and the Efficacy entry is “effective in blocking”. The “% of Oral dose” value in [6] (setting [8]) is 0.13%. In addition, the “Comments: solubility” value in series [7] is “Slightly soluble in water and in alcohol”. Also, the Human oral equivalent with human (effective daily dose, oral) is recorded as 6.66 mg/kg.

Turning to `NNCCc1ccccc1` [Phenelzine, 2-Phenylethylhydrazine], the “Rodent ICV dose” value in series [3] (effective daily dose) amounted to 1.8 mg/kg. In series [3], the “efficacy following ICV administration” value was “efficacy” and the “% of Oral dose” value is listed as 120%. For the same molecule, the Efficacy result in [3] (rat, in vivo) is listed as “anxiety reduction”. In addition, the Human oral equivalent in the series on human (effective daily dose, oral) is reported as 1.5 mg/kg.

With `NC(=O)OCC(COC(N)=O)c1ccccc1` [Felbamate, 2-phenyl-1,3-propanediol dicarbamate], in [5], the alleviation of seizures result is reported as “efficacious therapeutic alleviation of seizures”. In series [6], the “% Change” value was found to be 60%, the “Rodent ICV dose” value stood at 82.42 µg/kg and the Efficacy entry is recorded as “effective in blocking”. The “Rodent ICV dose” value in series [6] (listed as felbamate) was “about 0.08242 mg/kg”. Moreover, in series [6] (setting [8]), the “% of Oral dose” value was found to be 0.4%. For the same molecule, in the series with animals (Behavioral: openfield, elevated plus, ataxia), the Highest non-toxic concentration was 0.056 mg/mL. The “Comments: solubility” value in series [7] is “Freely soluble in water and in alcohol; soluble in acetone; insoluble in ether and in benzene”. For the same molecule, the Human oral equivalent with human (effective daily dose, oral) is given as 20 mg/kg.

In the case of `CCN(CC)CCN1C(=O)CN=C(c2ccccc2F)c2cc(Cl)ccc21` [FLURAZEPAM, 7-chloro-1-[2-(diethylamino)ethyl]-5-(o-fluorophenyl)-1,3-dihydro-2H-1,4-benzodiazepin-2-one dihydrochloride], in series [7], the “Comments: solubility” value is “Soluble in water, in alcohol, and in 0.1N hydrochloric acid”.

For `OCCOCCN1CCN(C(c2ccccc2)c2ccc(Cl)cc2)CC1` (stereo not drawn) [HYDROXYZINE, 2-[2-[4-(p-chlorobenzhydryl)-1-piperazinyl]ethoxy]ethanol dihydrochloride.], the “Comments: solubility” value in series [7] was “slightly soluble in water and isopropyl alcohol, sparingly soluble in ethanol”.

For the molecule `Cl.O=c1n(CCCN2CCN(c3cccc(Cl)c3)CC2)nc2ccccn12` [TRAZODONE], the Solubility in water entry in [7] (at 20 C.) is on record as “insoluble in water <0.1 g/100 mL at 20 C”.

Consider `CC(C)NCC(O)COc1cccc2ccccc12.Cl` (stereo not drawn) [PROPRANOLOL, 1-(Isopropylamino)-3-(1-naphthyloxy)-2-propanol hydrochloride], for which the “Comments: solubility” value in series [7] is on record as “soluble in methanol or ethanol but which has no appreciable solubility in water at physiological pH”.

For the molecule `O=C1NC(=O)C(c2ccccc2)(c2ccccc2)N1` [PHENYTOIN, 5,5-diphenyl-2,4-imidazolidinedione], in series [5], the alleviation of seizures entry is “efficacious therapeutic alleviation of seizures”. For the same molecule, the “Comments: solubility” value in series [7] is reported as “Very soluble in water”.

On to `O=C1CN=C(c2ccccc2)c2cc([N+](=O)[O-])ccc2N1` [NITRAZEPAM, 1,3-Dihydro-7-nitro-5-phenyl-2H-1,4-benzodiazepin-2-one], for which the “Comments: solubility” value in series [7] is “Soluble 1 in 12 of water, 1 in 14 of alcohol, and 1 in 3.5 of chloroform; insoluble in ether; freely soluble in methyl alcohol”.

`O=C1Nc2ccc(Cl)cc2C(c2ccccc2Cl)=NC1O` (stereo not drawn) [LOREZAPAM, 7-chloro-5-(0-chlorophenyl)-1,3-dihydro-3-hydroxy-2H-1,4-benzo-diazepin-2-one]: in [7], the “Comments: solubility” value is recorded as “Very soluble in organic solvents”.

Take `CCCC(CCC)C(=O)O` [Valproate, 2-Propylpentanoic acid]: the Human oral equivalent in the series on human (effective daily dose, oral) is 1 mg/kg.

With `NC(=O)N1c2ccccc2CC(=O)c2ccccc21` [OXCARBAZEPINE, 10,11-Dihydro-10-oxo-5H-dibenz[b,f]azepine-5-carboxamide], the “Comments: solubility” value in series [7] was “Freely soluble in water, in alcohol, and in dichloromethane”.

On to `CC1=CC(=O)N2CC(=O)N(C)c3ccc(Cl)cc3C2(c2ccccc2)O1` (stereo not drawn) [KETAZOLAM, 11-Chloro-8,12b-dihydro-2,8-dimethyl-12b-phenyl-4H-[1,3]oxazino[3,2-d][1,4]benzodiazepine-4,7(6H)-dione], for which, in series [7], the “Comments: solubility” value was “Practically insoluble in water; slightly soluble in alcohol; freely soluble in chloroform”.

Take `CCCCNc1cc(C(=O)O)cc(S(N)(=O)=O)c1Oc1ccccc1` [Bumex]: the alleviation of seizures entry in series [5] was “efficacious therapeutic alleviation of seizures”. Moreover, in series [6], the “% Change” value was determined as 90%, the “Rodent ICV dose” value turned out to be 0.364 µg/kg and the Efficacy result was “effective in blocking”. The “% of Oral dose” value in series [6] (setting [8]) was determined as 1.1%. Also, the Human oral equivalent with human (effective daily dose, oral) is listed as 0.033 mg/kg.

Take `Nc1ncnc2c1ncn2[C@@H]1O[C@H](CO)[C@@H](O)[C@H]1O` [Adenosine]: in [6], the “% Change” value is reported as 90%, the “Rodent ICV dose” value is 1.336 µg/kg and the Efficacy entry is given as “effective in blocking”. Besides, the “% of Oral dose” value in series [6] (setting [9]) came out at 1.3%. Further, in the series with animals (rat, in vivo), the Highest non-toxic concentration is 0.0694 mg/mL. Moreover, in series [3], the “efficacy following ICV administration” value is “efficacy”. For the same molecule, the Human oral equivalent in the series with human (setting [9]) is given as 0.1 mg/kg.
